pEC50: −log10 of the molar value.
Target: T1, Bile acid receptor (Homo sapiens, UniProt Q96RI1)
T1 sequence (Q96RI1 whole entry): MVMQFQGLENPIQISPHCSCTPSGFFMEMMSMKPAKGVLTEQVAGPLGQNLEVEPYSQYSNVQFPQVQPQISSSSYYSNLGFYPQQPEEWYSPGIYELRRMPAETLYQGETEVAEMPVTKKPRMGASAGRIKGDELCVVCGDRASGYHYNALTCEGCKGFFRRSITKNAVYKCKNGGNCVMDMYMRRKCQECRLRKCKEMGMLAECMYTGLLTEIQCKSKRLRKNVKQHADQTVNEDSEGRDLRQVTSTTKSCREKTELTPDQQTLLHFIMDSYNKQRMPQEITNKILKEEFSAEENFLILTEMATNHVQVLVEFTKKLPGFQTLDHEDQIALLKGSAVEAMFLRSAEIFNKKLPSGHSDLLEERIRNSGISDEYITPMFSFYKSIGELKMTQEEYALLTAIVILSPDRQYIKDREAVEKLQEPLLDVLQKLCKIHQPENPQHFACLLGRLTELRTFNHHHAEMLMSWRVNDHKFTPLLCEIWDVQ
Assay: FXR Reporter Assay kit purchased from Indigo Bioscience (Catalogue number: IB00601) to determine the potency and efficacy of compound developed by Enanta that can induce FXR activation. The principle application of this reporter assay system is to quantify functional activity of human FXR. The assay utilizes non-human mammalian cells, CHO (Chinese hamster ovary) cells engineered to express human NR1H4 protein (referred to as FXR). Reporter cells also incorporate the cDNA encoding beetle luciferase which catalyzes the substrates and yields photon emission. Luminescence intensity of the reaction is quantified using a plate-reading luminometer, Envision. Reporter Cells include the luciferase reporter gene functionally linked to an FXR responsive promoter. Thus, quantifying changes in luciferase expression in the treated reporter cells provides a sensitive surrogate measure of the changes in FXR activity. […] The assay is according to the manufacturer's instructions. In brief, the assay was performed in white, 96 well plates using final volume of 100 ul containing cells with different doses of compounds. Retrieve Reporter Cells from −80° C. storage. Perform a rapid thaw of the frozen cells by transferring a 10 ml volume of 37° C. cell recovery medium into the tube of frozen cells. Recap the tube of Reporter Cells and immediately place it in a 37° C. water bath for 5-10 minutes. […]
Type: cell-based

CC[C@H]1[C@@H](O)[C@@H]2[C@H](CC[C@]3(C)[C@@H]([C@H](C)C/C=C/c4ccc(F)cc4C(=O)O)CC[C@@H]23)[C@@]2(C)CC[C@@H](O)C[C@@H]12
pEC50: > 7.00
